# According to patent US8686178B2, “Derivative of 18β-glycyrrhetinic acid apt to suppress cancer cells” (Kaohsiung Medical University, priority 2011, dated 2014):
# Experiments:
# [1] = test system: human bladder cancer cell line NTUB1; assay: Trial (A): cytotoxic effect, IC50 by median-effect analysis; assay type: cell-based; conditions: NTUB1 cells
# Text: (§1) For the sake of proving therapeutic effects of the derivatives of 18β-glycyrrhetinic acid of the present invention, including 10, 11, 13-17 and 21-25, in treating of cancer, human bladder cancer cell line NTUB1, human prostate cancer cell line PC3 cataloged as CRL-1435 (reference to J. Formosan Med. Assoc. 1992; 91:608-13), and immortalized normal human urothelial cells SV-HUC1 cataloged as CRL-9520 are purchased from American Type Culture Collection (ATCC; Rockville, USA) and maintained in a culturing medium respectively till at a preferable density to carry out a serial of trials (comprising trial A to G) for evaluating cytotoxicities of the derivatives of 18β-glycyrrhetinic acid against cancer cells, and mechanisms thereof.
# In the present invention, the NTUB1 and the PC3 is but not limit to be maintained in RPMI 1640 medium supplemented 10% fetal bovine serum (FBS), 100 unit/mL penicillin-G, 100 μg/mL streptomycin, and 2 mM L-glutamine, yet the SV-HUC1 is maintained in F12 medium supplemented with 10% fetal bovine serum (FBS), 100 unit/mL penicillin-G, 100 μg/mL streptomycin, and 2 mM L-glutamine, culturing at 37° C. in a humidified atmosphere containing 5% CO2 till at a density of 70% per well, followed by repeatedly suspending cells in each well with an ethylene diamine tetra-acetic acid buffer (EDTA buffer; Merck) and counting cell numbers.
# In the present invention, the IC50 values of each group are presented as mean±standard deviation (SD).
# [2] = test system: human prostate cancer cell line PC3; assay: Trial (B): MTT cytotoxicity assay, 72 hours; assay type: cell-based; conditions: 0-50 μM
# Text: as §1, with “thereof. […]” for “thereof.”
# (§2) In trial (B), the cell lines of NTUB1, PC3, and SV-HUC1 are prepared in 96-well plates and co-incubated with the compounds 21, 23 or 25 in various concentrations of 0, 0.3, 1, 3, 5, 10, 30 and 50 μM, to analyze cytotoxic effects against either cancer cell or normal cells via a modified 3-[4,5-dimethylthiazol-2-yl]-2,5-diphenyltetrazolium bromide (MTT, Sigma Chemical Co.) assay. […] At co-incubation, 50 μL of MTT (2 mg/mL in PB) is added to each well to react for 3 hours, followed by centrifugating the 96-well plates at 1000 g for 10 min to remove supernatant, adding 150 μL DMSO in each well of the 96-well plates, and determining viability rates of the NTUB1, PC3, and SV-HUC1 cells separately by an absorbance spectrometry at 540 nm with a MRX (DYNEXCO) microplate reader.
# [3] = test system: immortalized normal human urothelial cells SV-HUC1; assay: Trial (B): MTT assay on normal cells, 72 hours; assay type: cell-based; conditions: 0-50 μM
# Text: as §1, with “thereof. […]” for “thereof.”
# as §2
# [4] = test system: NTUB1 cells; assay: Trial (D): production of reactive oxygen species by flow cytometry (DCF); assay type: cell-based, human; conditions: 24 hours
# Protocol: In trial (D), production of reactive oxygen species (ROS) is analyzed by flow cytometry, since the levels of ROS play an important role in apoptosis.
# Referring to TABLE 4, the NTUB1 cells at a density of 8×10^5 cells/ml are prepared and assigned into 5 groups, including D1 to D5, to incubate in various medium for 24 hours. Next, 10 μM of 2,7-dichlorodihydrofluorescein diacetate (H2DCFHDA; Molecular Probes, Eugene, Oreg.) is added to the NTUB1 cells of each group 30 minutes prior than harvest, followed by collecting the NTUB1 cells of each group respectively and washing with PBS buffer. With such arrangement, the 2,7-dichlorodihydrofluorescein diacetate will penetrate into cells, interact with esterase, and degrade to 2,7-dichlorofluorescein (DCF) having green fluorescein, which can be determined by flow cytometer. In trial (D), green fluorescence of intracellular DCF in each group are analyzed immediately by FACScan flow cytometer (Becton Dickinson) at a wavelength of 525 nm.
# [5] = test system: NTUB1 cells; assay: Trial (E): cell cycle progression by flow cytometry (propidium iodide); assay type: cell-based, human; parameters: Sub-G1 / G1: unit not given here; conditions: for G1 / G2/M / S / Sub-G1: 24 hours
# Protocol: In order to determine a relationship between the derivatives of 18β-glycyrrhetinic acid of the present invention and cell cycle arrest, trial (E) is carried out by analyzing cell cycle progression by flow cytometry. […] After that, cell cycle progression of each group is determined respectively by incubating with 50 μg/mL propidium iodide (Sigma, Co) and 50 μg/mL RNase A (Sigma, Co) in PBS at room temperature for 30 min, and analyzing by FACScan flow cytometer and Cell Quest sofeware.
# [6] = test system: NTUB1 cells; assay: Trial (F): mitochondrial membrane potential (JC-1) by flow cytometry; assay type: cell-based, human; conditions: for R1 (%): 30 minutes, JC-1, NTUB1
# Protocol: In trial (F), mitochondrial membrane potential (MMP) in NTUB1 cells is measured according to a journal article published by Martin et al., at 2009 in PloS one, in which a dysfunction of the mitochondria caused by ROS induced MPP decrease is supposed.
# Referring to TABLE 6, the NTUB1 cells at a density of 3×10^5 cells/ml are prepared and assigned into 5 groups, including F1 to F5, to incubate in 10 μM carbonyl cyanide 3-chlorophenylhydrazone (CCCP), and 10, 25 and 50 μM of 25 respectively, for 30 minutes, followed by adding 1 μM of 5,5′,6,6′-tetrachloro-1,1′,3,3′-tetraethylbenzimidaolylcarbocyanine iodide (JC-1) (Molecular Probes, Eugene, Oreg., USA) in each group. Then, the NTUB1 cells in each group are washed with PBS buffer for 3 times, collected in PBS/2% BSA, washed twice by centrifugating at 800 g, 5 minutes and resuspending in 0.3 mL PBS/2% BSA, and finally analyzed by a FACSCalibur flow cytometer (Becton Dickinson), with the FACSCalibur flow cytometer determining and calculating a ratio of JC-1 aggregates (red fluorescence) to JC-1 monomers (green fluorescence) based on levels of MMP in each group.
structure (smiles),measurement,setting,value
"C=C(C)[C@@H]1CC[C@]2(C)[C@H](C(=O)C=C3[C@@H]4C[C@@](C)(C(=O)NC(C)C)CC[C@]4(C)CC[C@]32C)[C@@]1(C)CCC(=O)NC(C)C [Compound 25, 3,4-seco-11-oxo-18β-olean-4(23),12-dien-3,30-diisopropyl carbamate]",cytotoxic effect against cancer cell,[1]; with reference to TABLE 2,significantly suppress the growth of cancer cells with a lower concentrate
same,IC50,[1]; mean ± SD,4.76 ± 1.15 µM
same,"cytotoxic effect (survival ratio, FIGS. 4-6)",[2],cytotoxic effects against to the cancer cells in a dose-dependent manner
same,"effect on growth of normal cells (survival ratio, FIGS. 4-6)",[3],enhance the growth of SV-HUC1 cells
same,ROS (%),[4]; 10 μM,66.1%
same,ROS (%),[4]; 25 μM,85.6%
same,G1,"[5]; 25 μM, NTUB1",49.51
same,G2/M,"[5]; 25 μM, NTUB1",12.68
same,S,"[5]; 25 μM, NTUB1",12.69
same,Sub-G1,"[5]; 25 μM, NTUB1",20.39
same,G1,"[5]; 50 μM, NTUB1",35.72
same,G2/M,"[5]; 50 μM, NTUB1",5.22
same,S,"[5]; 50 μM, NTUB1",3.15
same,Sub-G1,"[5]; 50 μM, NTUB1",55.71
same,G1,"[5]; 75 μM, NTUB1",14.69
same,G2/M,"[5]; 75 μM, NTUB1",4.00
same,S,"[5]; 75 μM, NTUB1",2.79
same,Sub-G1,"[5]; 75 μM, NTUB1",78.39
same,cell cycle arrest,"[5]; 25, 50 and 75 μM, NTUB1",does not induce cell cycle arrest
same,population of sub-G1 phase,"[5]; 25, 50 and 75 μM, NTUB1",induce the population of sub-G1 phase to cancer cells in dose-dependent manner
same,S phase cells,[5]; NTUB1 exposed to compound,a decrease of S phase cells
same,R1 (%),[6]; 10 μM,94.14%
same,R1 (%),[6]; 25 μM,87.17%
same,R1 (%),[6]; 50 μM,55.65%
same,mitochondrial membrane potential,"[6]; NTUB1, TABLE 6",decrease MPP in cancer cells in a dose-dependent manner
